Results from patent publication US20260262643A1, “HERBICIDAL BENZOXAZINES” (FMC CORPORATION, priority 2022, published 2026).

What was measured:
barnyardgrass [1] = assay: Test C preemergence; format: in vivo, Echinochloa crusgalli
Method in brief: (§1)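 Soil-applied (pre) and foliar (post, 1–2 leaf, 2–10 cm) sprays; surfactant-containing non-phytotoxic solvent vehicle; loam/sand substrate. Readout: visual % control at 10 d, greenhouse, versus untreated.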

blackgrass [2] = assay: Test C preemergence; format: in vivo, Alopecurus myosuroides
Method in brief: as §1

corn [3] = assay: Test C preemergence; format: in vivo, Zea mays
Method in brief: as §1

green foxtail [4] = assay: Test C preemergence; format: in vivo, Setaria viridis
Method in brief: as §1

kochia [5] = assay: Test C preemergence; format: in vivo, Bassia scoparia
Method in brief: as §1

oat, wild [6] = assay: Test C preemergence; format: in vivo, Avena fatua
Method in brief: as §1

pigweed, palmer [7] = assay: Test C preemergence; format: in vivo, Amaranthus palmeri
Method in brief: as §1

ragweed [8] = assay: Test C preemergence; format: in vivo, Ambrosia artemisiifolia
Method in brief: as §1

ryegrass, Italian [9] = assay: Test C preemergence; format: in vivo, Lolium multiflorum
Method in brief: as §1

soybean [10] = assay: Test C preemergence; format: in vivo, Glycine max
Method in brief: as §1

wheat [11] = assay: Test C preemergence; format: in vivo, Triticum aestivum
Method in brief: as §1

barnyardgrass [12] = assay: Test C postemergence; format: in vivo, Echinochloa crusgalli; details: 10 days, 0 to 100 scale (0 no effect, 100 complete control)
Method in brief: as §1

blackgrass [13] = assay: Test C postemergence; format: in vivo, Alopecurus myosuroides; details: 10 days, 0 to 100 scale (0 no effect, 100 complete control)
Method in brief: as §1

corn [14] = assay: Test C postemergence; format: in vivo, Zea mays; details: 10 days, 0 to 100 scale (0 no effect, 100 complete control)
Method in brief: as §1

green foxtail [15] = assay: Test C postemergence; format: in vivo, Setaria viridis; details: 10 days, 0 to 100 scale (0 no effect, 100 complete control)
Method in brief: as §1

kochia [16] = assay: Test C postemergence; format: in vivo, Bassia scoparia; details: 10 days, 0 to 100 scale (0 no effect, 100 complete control)
Method in brief: as §1

oat, wild [17] = assay: Test C postemergence; format: in vivo, Avena fatua; details: 10 days, 0 to 100 scale (0 no effect, 100 complete control)
Method in brief: as §1

pigweed, palmer [18] = assay: Test C postemergence; format: in vivo, Amaranthus palmeri; details: 10 days, 0 to 100 scale (0 no effect, 100 complete control)
Method in brief: as §1

ragweed [19] = assay: Test C postemergence; format: in vivo, Ambrosia artemisiifolia; details: 10 days, 0 to 100 scale (0 no effect, 100 complete control)
Method in brief: as §1

ryegrass, Italian [20] = assay: Test C postemergence; format: in vivo, Lolium multiflorum; details: 10 days, 0 to 100 scale (0 no effect, 100 complete control)
Method in brief: as §1

soybean [21] = assay: Test C postemergence; format: in vivo, Glycine max; details: 10 days, 0 to 100 scale (0 no effect, 100 complete control)
Method in brief: as §1

wheat [22] = assay: Test C postemergence; format: in vivo, Triticum aestivum; details: 10 days, 0 to 100 scale (0 no effect, 100 complete control)
Method in brief: as §1

galium = assay: Test C postemergence; format: in vivo, Galium aparine; details: 10 days, 0 to 100 scale (0 no effect, 100 complete control)
Method in brief: as §1

horseweed = assay: Test C postemergence; format: in vivo, Erigeron canadensis; details: 10 days, 0 to 100 scale (0 no effect, 100 complete control)
Method in brief: as §1

barnyardgrass [23] = assay: Test D flooded paddy test; format: in vivo, Echinochloa crus-galli; details: 250 g ai/ha, applied to paddy water, visual rating after 13 to 14 days, scale 0 to 100 (0 no effect, 100 complete control)
Method in brief: (§2)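 Plants at the 2-leaf stage were grown in pots flooded to 3 cm, and compound was applied directly into the paddy water, with depth kept throughout. After 13–14 days in a greenhouse, injury was rated visually against untreated controls on a 0–100 scale (100 = complete control); a dash means not tested.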

ducksalad = assay: Test D flooded paddy test; format: in vivo, Heteranthera limosa; details: 250 g ai/ha, applied to paddy water, visual rating after 13 to 14 days, scale 0 to 100 (0 no effect, 100 complete control)
Method in brief: as §2

rice = assay: Test D flooded paddy test; format: in vivo, Oryza sativa; details: 250 g ai/ha, applied to paddy water, visual rating after 13 to 14 days, scale 0 to 100 (0 no effect, 100 complete control)
Method in brief: as §2

sedge, umbrella = assay: Test D flooded paddy test; format: in vivo, Cyperus difformis; details: 250 g ai/ha, applied to paddy water, visual rating after 13 to 14 days, scale 0 to 100 (0 no effect, 100 complete control)
Method in brief: as §2

[24] = 500 g ai/ha, preemergence, 0 to 100 scale (0 no effect, 100 complete control)
[25] = Preemergence, 125 g ai/ha, 0 to 100 scale, 0 no effect, 100 complete control

CCOC[C@H]1CN(C(=O)c2cc(-n3cnc(C4CCC4)n3)cc3c2OCCO3)c2cccc(Cl)c2O1 [Compound 386]
Barnyardgrass plant response rating (barnyardgrass [1]; [24]): 70
Plant response rating, Barnyardgrass (barnyardgrass [1]; [25]): 40
Blackgrass plant response rating (blackgrass [2]; [24]): 0
Plant response rating, Blackgrass (blackgrass [2]; [25]): 0
Corn plant response rating (corn [3]; [24]): 20
Plant response rating, Corn (corn [3]; [25]): 0
Foxtail, Green plant response rating (green foxtail [4]; [24]): 90
Plant response rating, Foxtail, Green (green foxtail [4]; [25]): 40
Kochia plant response rating (kochia [5]; [24]): 70
Plant response rating, Kochia (kochia [5]; [25]): 70
Oat, Wild plant response rating (oat, wild [6]; [24]): 40
Plant response rating, Oat, Wild (oat, wild [6]; [25]): 30
Pigweed, Palmer plant response rating (pigweed, palmer [7]; [24]): 100
Plant response rating, Pigweed, Palmer (pigweed, palmer [7]; [25]): 100
Ragweed plant response rating (ragweed [8]; [24]): 80
Plant response rating, Ragweed (ragweed [8]; [25]): 20
Ryegrass, Italian plant response rating (ryegrass, Italian [9]; [24]): 80
Plant response rating, Ryegrass, Italian (ryegrass, Italian [9]; [25]): 50
Soybean plant response rating (soybean [10]; [24]): 100
Plant response rating, Soybean (soybean [10]; [25]): 50
Wheat plant response rating (wheat [11]; [24]): 0
Plant response rating, Wheat (wheat [11]; [25]): 0
Plant response rating, Barnyardgrass (barnyardgrass [12]; 500 g ai/ha, postemergence): 30
Plant response rating, Barnyardgrass (barnyardgrass [12]; Postemergence, 125 g ai/ha): 20
Plant response rating, Blackgrass (blackgrass [13]; 500 g ai/ha, postemergence): 50
Plant response rating, Blackgrass (blackgrass [13]; Postemergence, 125 g ai/ha): 0
Plant response rating, Corn (corn [14]; 500 g ai/ha, postemergence): 20
Plant response rating, Corn (corn [14]; Postemergence, 125 g ai/ha): 10
Plant response rating, Foxtail, Green (green foxtail [15]; 500 g ai/ha, postemergence): 50
Plant response rating, Foxtail, Green (green foxtail [15]; Postemergence, 125 g ai/ha): 10
Plant response rating, Kochia (kochia [16]; 500 g ai/ha, postemergence): 90
Plant response rating, Kochia (kochia [16]; Postemergence, 125 g ai/ha): 80
Plant response rating, Oat, Wild (oat, wild [17]; 500 g ai/ha, postemergence): 0
Plant response rating, Oat, Wild (oat, wild [17]; Postemergence, 125 g ai/ha): 0
Plant response rating, Pigweed, Palmer (pigweed, palmer [18]; 500 g ai/ha, postemergence): 100
Plant response rating, Pigweed, Palmer (pigweed, palmer [18]; Postemergence, 125 g ai/ha): 80
Plant response rating, Ragweed (ragweed [19]; 500 g ai/ha, postemergence): 80
Plant response rating, Ragweed (ragweed [19]; Postemergence, 125 g ai/ha): 50
Plant response rating, Ryegrass, Italian (ryegrass, Italian [20]; 500 g ai/ha, postemergence): 60
Plant response rating, Ryegrass, Italian (ryegrass, Italian [20]; Postemergence, 125 g ai/ha): 40
Plant response rating, Soybean (soybean [21]; 500 g ai/ha, postemergence): 100
Plant response rating, Soybean (soybean [21]; Postemergence, 125 g ai/ha): 100
Plant response rating, Wheat (wheat [22]; 500 g ai/ha, postemergence): 10
Plant response rating, Wheat (wheat [22]; Postemergence, 125 g ai/ha): 10
Plant response rating, Galium (galium; 500 g ai/ha, postemergence): 100
Plant response rating, Galium (galium; Postemergence, 125 g ai/ha): 100
Plant response rating, Horseweed (horseweed; 500 g ai/ha, postemergence): 60
Plant response rating, Horseweed (horseweed; Postemergence, 125 g ai/ha): 30
Plant response rating, Barnyardgrass (Flood) (barnyardgrass [23]): 0
Plant response rating, Ducksalad (Flood) (ducksalad): 0
Plant response rating, Rice (Flood) (rice): 0
Plant response rating, Sedge, Umbrella (Flood) (sedge, umbrella): 0
